Measured values taken from US5663162A, “Cephem derivatives” (priority 1993, dated 1997).
In brackets after ≈: the same amount, converted by molar mass. Read-outs that look alike come from different tables or passages of the source.

Legend:
Assay in all cases: Antibacterial activity test, MIC by two-fold dilution method
[1] = test system: E. cloacae G-0008; assay type: cell-based; details: Enterobacter cloacae
Experimental: (§1) The measurement was carried out in the following manner: 10^6 CFU/ml of a bacterium to be tested was inoculated on a Medium N for disc susceptibility test (manufactured by Nissui Pharmaceutical Co., Ltd.), and cultivated at 35° C. for 18 to 20 hours.

[2] = test system: P. aeruginosa GN10362; assay type: cell-based; details: Pseudomonas aeruginosa
Experimental: as §1

[3] = test system: P. aeruginosa E-2; assay type: cell-based; details: Pseudomonas aeruginosa
Experimental: as §1

[4] = test system: K. pneumoniae PC1602; assay type: cell-based; details: Klebsiella pneumoniae
Experimental: as §1

[5] = test system: M. morganii 1510/S-1; assay type: cell-based; details: Morganella morganii
Experimental: as §1

[6] = test system: S. Aureus 209P JC-1; assay type: cell-based; details: Staphylococcus aureus, read-out: Minimum Inhibition Concentration
Experimental: as §1

[7] = test system: S. epidermidis ATCC14990; assay type: cell-based; details: Staphylococcus epidermidis
Experimental: as §1

[8] = test system: E. coli NIHJ JC-2; assay type: cell-based; details: Escherichia coli
Experimental: as §1

[9] = test system: P. vulgaris GN76; assay type: cell-based; details: Proteus vulgaris
Experimental: as §1

[10] = test system: C. freundii GN346/16; assay type: cell-based; details: Citrobacter freundii
Experimental: as §1

[11] = test system: S. marcescens No. 1; assay type: cell-based; details: Serratia marcescens
Experimental: as §1

[12] = test system: S. Aureus 126; assay type: cell-based, Staphylococcus aureus (methicillin-resistant, MRSA); details: Staphylococcus aureus; S. Aureus 126 (MRSA); 10^6 CFU/ml, 35° C., 18 to 20 hours; read-out: Minimum Inhibition Concentration
Experimental: as §1

[13] = test system: S. Aureus 133; assay type: cell-based, Staphylococcus aureus (methicillin-resistant, MRSA); details: Staphylococcus aureus, read-out: Minimum Inhibition Concentration
Experimental: as §1

[14] = GN10362, read-out: Minimum Inhibition Concentration
[15] = ATCC14990, read-out: Minimum Inhibition Concentration
[16] = GN76, read-out: Minimum Inhibition Concentration
[17] = S. Aureus 133 (MRSA), 10^6 CFU/ml, 35° C., 18 to 20 hours
[18] = G0008, E. cloacae G-0008, 10^6 CFU/ml, 35° C., 18 to 20 hours, read-out: Minimum Inhibition Concentration
[19] = P. aeruginosa GN10362, 10^6 CFU/ml, 35° C., 18 to 20 hours, read-out: Minimum Inhibition Concentration
[20] = E2, P. aeruginosa E-2, 10^6 CFU/ml, 35° C., 18 to 20 hours, read-out: Minimum Inhibition Concentration
[21] = K. pneumoniae PC1602, 10^6 CFU/ml, 35° C., 18 to 20 hours, read-out: Minimum Inhibition Concentration
[22] = 1510/S1, M. morganii 1510/S-1, 10^6 CFU/ml, 35° C., 18 to 20 hours, read-out: Minimum Inhibition Concentration
[23] = S. Aureus 209P JC-1, 10^6 CFU/ml, 35° C., 18 to 20 hours
[24] = NIHJJC2, E. coli NIHJ JC-2, 10^6 CFU/ml, 35° C., 18 to 20 hours, read-out: Minimum Inhibition Concentration
[25] = P. vulgaris GN76, 10^6 CFU/ml, 35° C., 18 to 20 hours, read-out: Minimum Inhibition Concentration
[26] = C. freundii GN346/16, 10^6 CFU/ml, 35° C., 18 to 20 hours, read-out: Minimum Inhibition Concentration
[27] = S. marcescens No. 1, 10^6 CFU/ml, 35° C., 18 to 20 hours, read-out: Minimum Inhibition Concentration

| Compound | MIC [2, 14] [µg/mL] | MIC ([6]; 209P) [µg/mL] | MIC [7, 15] [µg/mL] | MIC [9, 16] [µg/mL] | MIC [12] [µg/mL] | MIC [13, 17] [µg/mL] | MIC [1, 18] [µg/mL] | MIC [2, 19] [µg/mL] | MIC [3, 20] [µg/mL] | MIC [4, 21] [µg/mL] | MIC [5, 22] [µg/mL] | MIC [6, 23] [µg/mL] | MIC [8, 24] [µg/mL] | MIC [9, 25] [µg/mL] | MIC [10, 26] [µg/mL] | MIC [11, 27] [µg/mL] | MIC ([13]; MRSA) [µg/mL] | other results |
| --- | --- | --- | --- | --- | --- | --- | --- | --- | --- | --- | --- | --- | --- | --- | --- | --- | --- | --- |
| CC(C)(O/N=C(\C(=O)N[C@@H]1C(=O)N2C(C(=O)[O-])=C(C[n+]3ccccc3)CS[C@H]12)c1csc(N)n1)C(=O)O [CAZ, Ceftazidime, reference compound] | 1.56 (≈ 2.85 µM) | 6.25 (≈ 11.4 µM) | 6.25 (≈ 11.4 µM) | 0.05 (≈ 0.0915 µM) | > 100 | 100 (≈ 183 µM) | – | – | – | – | – | – | – | – | – | – | – | MIC ([1]; G0008, read-out: Minimum Inhibition Concentration): 0.2 µg/mL (≈ 0.366 µM); MIC ([3]; E2, read-out: Minimum Inhibition Concentration): 1.56 µg/mL (≈ 2.85 µM); MIC ([4]; PC1602, read-out: Minimum Inhibition Concentration): 0.1 µg/mL (≈ 0.183 µM); MIC ([5]; 1510/S1, read-out: Minimum Inhibition Concentration): 0.2 µg/mL (≈ 0.366 µM); MIC ([8]; NIHJJC2, read-out: Minimum Inhibition Concentration): 0.39 µg/mL (≈ 0.714 µM); MIC ([10]; GN346, read-out: Minimum Inhibition Concentration): 0.39 µg/mL (≈ 0.714 µM); MIC ([11]; NO.1, read-out: Minimum Inhibition Concentration): 0.05 µg/mL (≈ 0.0915 µM) |
| CO/N=C(\C(=O)N[C@@H]1C(=O)N2C(C(=O)[O-])=C(C[n+]3cccc4c3CCC4)CS[C@H]12)c1csc(N)n1 [CPR, Cefpirome, reference compound] | – | – | 0.39 (≈ 0.758 µM) | – | 50 (≈ 97.2 µM) | – | 0.05 (≈ 0.0972 µM) | 3.13 (≈ 6.08 µM) | 3.13 (≈ 6.08 µM) | 0.05 (≈ 0.0972 µM) | ≤ 0.025 | 0.2 (≈ 0.389 µM) | 0.05 (≈ 0.0972 µM) | 0.2 (≈ 0.389 µM) | 0.05 (≈ 0.0972 µM) | ≤ 0.025 | 6.25 (≈ 12.1 µM) | – |
| CO/N=C(\C(=O)N[C@@H]1C(=O)N2C(C(=O)[O-])=C(C[n+]3cc4sccn4c3CO)CS[C@H]12)c1nsc(N)n1 [Example 31] | – | – | – | 0.39 (≈ 0.708 µM) | 12.5 (≈ 22.7 µM) | – | 0.05 (≈ 0.0908 µM) | 3.13 (≈ 5.68 µM) | 3.13 (≈ 5.68 µM) | 0.05 (≈ 0.0908 µM) | 0.05 (≈ 0.0908 µM) | 0.78 (≈ 1.42 µM) | ≤ 0.025 | – | 0.1 (≈ 0.182 µM) | 0.05 (≈ 0.0908 µM) | 6.25 (≈ 11.4 µM) | MIC ([7]; S. epidermidis ATCC14990, 10^6 CFU/ml, 35° C., 18 to 20 hours, read-out: Minimum Inhibition Concentration): 0.78 µg/mL (≈ 1.42 µM) |
| Nc1nc(/C(=N/OCCF)C(=O)N[C@@H]2C(=O)N3C(C(=O)[O-])=C(C[n+]4cc5sccn5c4)CS[C@H]23)ns1 [Example 133, (6R,7R)-7-[(Z)-2-(5-Amino-1,2,4-thiadiazol-3-yl)-2-(2-fluoroethoxyimino)acetamide]3-cephem-4-carboxylate] | – | 0.39 (≈ 0.706 µM) | 0.39 (≈ 0.706 µM) | – | 12.5 (≈ 22.6 µM) | – | ≤ 0.025 | 0.78 (≈ 1.41 µM) | 0.78 (≈ 1.41 µM) | ≤ 0.025 | ≤ 0.025 | – | ≤ 0.025 | 0.2 (≈ 0.362 µM) | 0.1 (≈ 0.181 µM) | ≤ 0.025 | 6.25 (≈ 11.3 µM) | – |
| CO/N=C(\C(=O)N[C@@H]1C(=O)N2C(C(=O)[O-])=C(C[n+]3cc4sccn4c3)CS[C@H]12)c1nsc(N)n1 [Example 30, (6R,7R)-7-[(Z)-2-(5-Amino-1,2,4-thiadiazol-3-yl)-2-methoxyiminoacetamide]-3-(imidazo [5, l-b]thiazolium-6-yl)methyl-3-cephem-4-carboxylate] | 1.56 (≈ 3 µM) | 0.39 (≈ 0.749 µM) | 0.39 (≈ 0.749 µM) | 0.39 (≈ 0.749 µM) | 25 (≈ 48 µM) | 12.5 (≈ 24 µM) | 0.05 (≈ 0.096 µM) | – | 3.13 (≈ 6.01 µM) | 0.05 (≈ 0.096 µM) | 0.1 (≈ 0.192 µM) | – | 0.05 (≈ 0.096 µM) | – | 0.1 (≈ 0.192 µM) | 0.05 (≈ 0.096 µM) | – | – |
